For one test, the target named is SCD1 (Homo sapiens (Human), UniProt O00767). The test can be described thus: Growth inhibition of yeast strain expressing human SCD1 as the sole desaturase. In kind it is cell-based.
Another test addresses SCD5 (Homo sapiens (Human), UniProt Q86SK9). The test can be described thus: Growth inhibition of yeast strain expressing human SCD5 as the sole desaturase. In kind it is cell-based.
Where [1] appears, read: ole1Δ yeast with human SCD1 plasmid, OD600 growth read at 40 h, top concentration 33.3 μM per method.
Where [2] appears, read: ole1Δ yeast with human SCD5 plasmid, OD600 growth read at 40 h, top concentration 33.3 μM per method.

Read-outs that look alike come from different tables or passages of the source.

Sequence of SCD5 (Q86SK9 whole entry): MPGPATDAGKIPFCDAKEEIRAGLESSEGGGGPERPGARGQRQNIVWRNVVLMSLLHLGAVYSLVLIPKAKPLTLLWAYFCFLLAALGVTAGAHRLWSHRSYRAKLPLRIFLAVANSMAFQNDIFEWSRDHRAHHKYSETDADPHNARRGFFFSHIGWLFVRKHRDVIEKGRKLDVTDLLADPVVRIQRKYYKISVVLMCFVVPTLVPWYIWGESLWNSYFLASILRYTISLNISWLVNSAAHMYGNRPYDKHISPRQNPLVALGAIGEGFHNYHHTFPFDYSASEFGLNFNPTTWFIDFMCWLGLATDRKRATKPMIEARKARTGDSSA
Sequence of SCD1 (O00767 whole entry): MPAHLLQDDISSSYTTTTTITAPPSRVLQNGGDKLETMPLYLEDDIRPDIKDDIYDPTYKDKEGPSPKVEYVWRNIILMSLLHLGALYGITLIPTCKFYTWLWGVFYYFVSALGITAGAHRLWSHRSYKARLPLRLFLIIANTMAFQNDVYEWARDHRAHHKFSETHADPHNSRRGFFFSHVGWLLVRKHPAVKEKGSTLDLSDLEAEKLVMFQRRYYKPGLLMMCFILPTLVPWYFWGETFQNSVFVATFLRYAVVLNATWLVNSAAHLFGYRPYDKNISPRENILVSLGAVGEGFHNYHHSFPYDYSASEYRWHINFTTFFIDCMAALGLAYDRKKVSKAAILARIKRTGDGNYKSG

With “6-(3-(4-(3,5-difluorobenzyl)piperidin-1-yl)-1,2,4-oxadiazol-5-yl)-2-methylpyridazin-3(2H)-one [Compound 115]”, the figures for the IC50 against SCD1 (setting [1]) and against SCD5 (setting [2]) were 450 nM and 10 nM, respectively.
Consider `Cn1nc(NC(=O)N2CCC(Cc3cc(F)cc(F)c3)CC2)ccc1=O` [Compound 51, 4-(3,5-difluorobenzyl)-N-(1-methyl-6-oxo-1,6-dihydropyridazin-3-yl)piperidine-1-carboxamide], for which the figures for the half-maximal inhibitory concentration (IC50) at SCD1 and on SCD5 were 680 nM and 60 nM, respectively.
Turning to `Cn1nc(NC(=O)N2CCC(Oc3cccc(F)c3Cl)CC2)ccc1=O` [Compound 78, 4-(2-Chloro-3-fluorophenoxy)-N-(1-methyl-6-oxo-1,6-dihydropyridazin-3-yl)piperidine-1-carboxamide], the 50% inhibitory concentration (IC50) against SCD1 (setting [1]) stood at 170 nM; against SCD5 (setting [2]) it was 10 nM.
In the same order, the values of `Cn1nc(NC(=O)C2CCN(Cc3cccc(Cl)c3)CC2)ccc1=O` [Compound 136, 1-(3-chlorobenzyl)-N-(1-methyl-6-oxo-1,6-dihydropyridazin-3-yl)piperidine-4-carboxamide] are over 45000 nM and over 45000 nM.
Take `Cn1nc(NC(=O)N2CCC(Oc3cccc(Cl)c3F)CC2)ccc1=O` [Compound 77, 4-(3-chloro-2-fluorophenoxy)-N-(1-methyl-6-oxo-1,6-dihydropyridazin-3-yl)piperidine-1-carboxamide]: the figures for the concentration for half-maximal inhibition (IC50) at SCD1 (setting [1]) and on SCD5 (setting [2]) were 910 nM and 740 nM, respectively.
In the same order, the values of `Cn1cc(NC(=O)N2CCC(Cc3cc(F)cc(F)c3)CC2)ccc1=O` [Compound 9] are 14400 nM and 4220 nM.

Values taken from patent publication US12268687B2, “Compounds and uses thereof” (JANSSEN PHARMACEUTICA NV, priority 2020, dated 2025).
